According to US20190151346A1, “COMBINATIONS THERAPIES FOR THE TREATMENT OF CANCER” (INSERM (INSTITUTE NATIONAL DE LA SANTÉ ET DE LA RECHERCHE …, priority 2016, published 2019):

Columns and labels:
Format in all cases: cell-based
Src = test: Tyrosine phosphorylation by Western blotting: Src phosphorylation in TNBC cell lines
Procedure: (§1) BT20 and MDA-MB468 triple negative (HER2-, ER-, PR-) were obtained from American Type Culture Collection (ATCC N°HTB19, and ATCC N°HTB132, respectively). The LumB, and Her2-, ER-, PR-negative IJG-1731 cell line was previously established at the laboratory as described (Mombelli et al. Sci Rep. 2015 Jul. 8; 5:11874.) BT20 and IJG-1731 cells were grown in complete RPMI-1640 media with L-glutamine, supplemented with 10% fetal calf serum (FCS) and penicillin—streptomycin solution (100 μg/ml each) (Life technology, Saint-Aubain, France). MDA-MB468 cells were grown in a complete DMEM-F12 media with glutamine, 10% FCS and penicillin—streptomycin. All cells were maintained in a humidified 5% CO2 atmosphere at 37° C. All experiments were conducted with cells at confluency and starved for an overnight.
(§2) Cells (3×10^5) were seeded in 6-well plates in complete medium for 24 hours then starved for another overnight. Cells were then stimulated with IL-17E (10 ng/ml), EGF (10 ng/ml), or a combination of both for 30 min in serum-free medium. Cells were then lysed in 1% Triton X100 buffer and left on ice for 1 hours. Protein samples were then subjected to 8% SDS-PAGE. Western blotting using specific antibodies assessed then the phosphorylation of the various kinases.

EGFR [1] = test: Immunofluorescence microscopy: localization of EGFR; conditions: MDA-MB468; 10 ng/ml, 2 hours; FIG. 4A, FIG. 7
Procedure: as §1
Cells (4.10^3) were grown on Lab-Tek chambers slide in their respective complete culture medium for 24 hours then starved for an overnight. Cells were then stimulated with IL-17E (long/ml), EGF (10 ng/ml) or a combination of both for 2 hours at 37° C., washed, and fixed with 4% paraformaldehyde (PFA)-PBS solution at 4° C. […] Slides were mounted with mounting medium containing Dapi then visualized with a Leica DMRB fluorescence microscope and images analysis was performed with the Archimed Software (Microvision).

STAT3 = test: Cellular fractionation and Western blotting: STAT3 and pSTAT3 translocation to the nucleus; conditions: MDA-MB468 fractions
Procedure: as §1
Cells (3×10^5) were seeded in 6-well plates in complete medium for 24 hours then starved for another overnight. Cells were stimulated for 2 hours at 37° C. with IL-17E (10 ng/ml), EGF (long/ml), or a combination of both as indicated. Cells were then washed with PBS and lysed in a lysis buffer (HEPES 10 mM, MgCl2 15 mM KCl 10 mM, DTT 0.5 mM, PMSF 0.2 mM, 1 mM Na3VO4, 10 mM NaF, 0.5% Nonidet P-40). […] Protein concentrations were determined by using Bradford method. […]

EGFR [2] = test: Tyrosine phosphorylation by Western blotting: EGFR phosphorylation in TNBC cell lines; conditions: for IL-17E- and EGF-induced phosphorylation of Y1086 EGFR: AZM475271 10 μM pre-treatment, FIG. 2A
Procedure: BT20 and MDA-MB468 triple negative (HER2-, ER-, PR-) were obtained from American Type Culture Collection (ATCC N°HTB19, and ATCC N°HTB132, respectively). […] MDA-MB468 cells were grown in a complete DMEM-F12 media with glutamine, 10% FCS and penicillin—streptomycin. All cells were maintained in a humidified 5% CO2 atmosphere at 37° C. All experiments were conducted with cells at confluency and starved for an overnight.
as §2

Q: With “EGF: epidermal growth factor, EGFR ligand used as stimulus (NSDSECPLSHDGYCLHDGVCMYIEALDKYACNCVVGYIGERCQYRDLKWWELR; Epidermal growth factor; UniProt P01133 971-1023, looked up)” as the compound, how does the “phosphorylation of Src at Y416 at suboptimal concentrations” value (Src; MDA-MB468, IL-17E 1 ng/ml alone or EGF 0.1-1 ng/ml alone, FIG. 3) read?
A: failed to induce any significant phosphorylation

Q: What about the “translocation of EGFR (immunofluorescence)” value (EGFR [1]) of the same compound?
A: induced strong translocation of EGFR from the membrane to the nucleus

Q: And the “phosphorylation of STAT3α and β” value (STAT3)?
A: induced the phosphorylation

Q: Which results are given for `COc1ccc(Cl)c(Nc2ncnc3cc(OCC4CCN(C)CC4)c(OC)cc23)c1` [AZM475271]?
A: IL-17E- and EGF-induced Src phosphorylation (Src; TNBC cell lines pre-treated with AZM475271 (10 μM), then stimulated with IL-17E or EGF (10 ng/ml), FIG. 2A): inhibited; IL-17E- and EGF-induced phosphorylation of Y1086 EGFR (EGFR [2]; IJG-1731 and BT20 cell lines): abolished; IL-17E- and EGF-induced phosphorylation of Y1086 EGFR (EGFR [2]; MDA-MB468): to a lesser extent; EGFR activation downstream IL-17E or IL-17B (EGFR [2]; TNBC cells, Src specific inhibitor, discussion, FIG. 6): inhibition
